Assay results taken from ChEMBL document CHEMBL4507276 (2021).

Tests used:
[1] = target: T1, Activin receptor type-1 (Homo sapiens) (UniProt Q04771); details: Compound concentration 1000.0 nM
T1 sequence (whole entry): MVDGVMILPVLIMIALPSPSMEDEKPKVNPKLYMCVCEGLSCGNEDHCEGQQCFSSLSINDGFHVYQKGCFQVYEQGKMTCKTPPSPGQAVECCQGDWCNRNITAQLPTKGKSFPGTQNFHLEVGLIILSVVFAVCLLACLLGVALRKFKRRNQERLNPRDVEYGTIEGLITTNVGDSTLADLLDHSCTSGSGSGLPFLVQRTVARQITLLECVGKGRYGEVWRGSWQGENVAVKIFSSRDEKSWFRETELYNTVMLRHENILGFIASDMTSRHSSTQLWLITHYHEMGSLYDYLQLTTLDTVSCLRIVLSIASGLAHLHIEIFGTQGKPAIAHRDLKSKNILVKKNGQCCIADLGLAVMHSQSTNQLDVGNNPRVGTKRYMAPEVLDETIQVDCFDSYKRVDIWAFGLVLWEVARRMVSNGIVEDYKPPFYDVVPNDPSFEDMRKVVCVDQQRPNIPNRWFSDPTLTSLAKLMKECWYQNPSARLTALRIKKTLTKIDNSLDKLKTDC

[2] = target: Calcium/calmodulin-dependent protein kinase kinase 1 (Homo sapiens) (UniProt Q8N5S9); details: Compound concentration 1000.0 nM
Chain of Calcium/calmodulin-dependent protein kinase kinase 1 (Homo sapiens) (Q8N5S9 whole entry, looked up): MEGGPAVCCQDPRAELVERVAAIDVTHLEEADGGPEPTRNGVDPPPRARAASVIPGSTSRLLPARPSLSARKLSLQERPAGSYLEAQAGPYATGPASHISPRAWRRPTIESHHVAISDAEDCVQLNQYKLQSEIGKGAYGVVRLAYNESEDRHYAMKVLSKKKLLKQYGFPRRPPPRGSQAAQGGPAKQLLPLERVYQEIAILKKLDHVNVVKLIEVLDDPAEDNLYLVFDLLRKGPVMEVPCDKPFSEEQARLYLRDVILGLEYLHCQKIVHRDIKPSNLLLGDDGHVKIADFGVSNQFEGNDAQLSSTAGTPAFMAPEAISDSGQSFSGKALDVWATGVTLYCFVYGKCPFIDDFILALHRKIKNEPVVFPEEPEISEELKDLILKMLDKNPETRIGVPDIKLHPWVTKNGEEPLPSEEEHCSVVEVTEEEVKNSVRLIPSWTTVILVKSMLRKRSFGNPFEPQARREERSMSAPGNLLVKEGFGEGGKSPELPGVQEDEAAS

[3] = target: Dual specificity protein kinase CLK4 (Homo sapiens) (UniProt Q9HAZ1); details: Compound concentration 1000.0 nM
Chain of Dual specificity protein kinase CLK4 (Homo sapiens) (Q9HAZ1 whole entry, looked up): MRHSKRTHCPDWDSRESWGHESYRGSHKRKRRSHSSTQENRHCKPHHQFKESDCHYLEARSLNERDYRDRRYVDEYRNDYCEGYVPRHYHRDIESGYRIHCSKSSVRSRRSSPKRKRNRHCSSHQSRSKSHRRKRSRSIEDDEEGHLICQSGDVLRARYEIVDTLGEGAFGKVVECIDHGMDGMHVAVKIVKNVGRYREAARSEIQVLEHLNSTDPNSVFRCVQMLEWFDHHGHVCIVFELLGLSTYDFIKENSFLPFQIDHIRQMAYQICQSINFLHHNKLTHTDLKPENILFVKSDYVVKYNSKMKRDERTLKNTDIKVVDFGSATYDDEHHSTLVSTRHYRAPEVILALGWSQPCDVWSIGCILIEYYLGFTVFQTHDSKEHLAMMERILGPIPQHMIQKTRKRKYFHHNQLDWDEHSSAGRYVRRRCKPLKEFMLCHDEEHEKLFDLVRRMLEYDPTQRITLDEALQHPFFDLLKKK

[4] = test system: Epidermal growth factor receptor (Homo sapiens), P00533 [T790M]; details: Compound concentration 1000.0 nM
[5] = target: T2, Ephrin type-B receptor 2 (Homo sapiens) (UniProt P29323); details: Compound concentration 1000.0 nM
T2 sequence (whole entry): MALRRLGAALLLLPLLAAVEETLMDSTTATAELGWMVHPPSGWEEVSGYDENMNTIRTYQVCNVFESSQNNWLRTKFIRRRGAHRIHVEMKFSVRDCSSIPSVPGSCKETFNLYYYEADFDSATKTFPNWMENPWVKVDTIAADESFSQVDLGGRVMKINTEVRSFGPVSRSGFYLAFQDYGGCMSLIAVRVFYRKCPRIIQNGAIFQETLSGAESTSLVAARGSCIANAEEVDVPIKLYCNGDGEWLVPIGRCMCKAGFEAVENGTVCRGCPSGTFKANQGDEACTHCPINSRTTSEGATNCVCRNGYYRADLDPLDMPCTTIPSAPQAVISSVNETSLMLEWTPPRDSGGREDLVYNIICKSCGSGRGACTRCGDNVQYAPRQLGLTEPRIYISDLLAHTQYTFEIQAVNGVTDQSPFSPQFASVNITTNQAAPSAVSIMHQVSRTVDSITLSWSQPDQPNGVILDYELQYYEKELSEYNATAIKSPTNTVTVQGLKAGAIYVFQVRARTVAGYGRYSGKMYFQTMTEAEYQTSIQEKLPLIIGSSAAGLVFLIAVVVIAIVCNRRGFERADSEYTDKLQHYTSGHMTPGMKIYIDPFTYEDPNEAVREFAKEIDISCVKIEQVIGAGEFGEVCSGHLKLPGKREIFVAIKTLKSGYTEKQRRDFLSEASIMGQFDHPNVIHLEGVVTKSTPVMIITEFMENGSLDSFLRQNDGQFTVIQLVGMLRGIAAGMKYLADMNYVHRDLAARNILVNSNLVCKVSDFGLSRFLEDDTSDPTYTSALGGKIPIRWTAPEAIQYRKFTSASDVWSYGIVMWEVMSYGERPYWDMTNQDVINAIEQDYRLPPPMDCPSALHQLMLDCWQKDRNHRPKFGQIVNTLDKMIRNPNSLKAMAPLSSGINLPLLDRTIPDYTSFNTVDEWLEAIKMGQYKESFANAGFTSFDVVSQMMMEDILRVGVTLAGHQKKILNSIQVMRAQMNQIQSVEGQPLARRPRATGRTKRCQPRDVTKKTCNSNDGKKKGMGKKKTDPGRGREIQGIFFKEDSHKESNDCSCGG

[6] = target: Mitogen-activated protein kinase 15 (Homo sapiens) (UniProt Q8TD08); details: Compound concentration 1000.0 nM
Chain of Mitogen-activated protein kinase 15 (Homo sapiens) (Q8TD08 whole entry): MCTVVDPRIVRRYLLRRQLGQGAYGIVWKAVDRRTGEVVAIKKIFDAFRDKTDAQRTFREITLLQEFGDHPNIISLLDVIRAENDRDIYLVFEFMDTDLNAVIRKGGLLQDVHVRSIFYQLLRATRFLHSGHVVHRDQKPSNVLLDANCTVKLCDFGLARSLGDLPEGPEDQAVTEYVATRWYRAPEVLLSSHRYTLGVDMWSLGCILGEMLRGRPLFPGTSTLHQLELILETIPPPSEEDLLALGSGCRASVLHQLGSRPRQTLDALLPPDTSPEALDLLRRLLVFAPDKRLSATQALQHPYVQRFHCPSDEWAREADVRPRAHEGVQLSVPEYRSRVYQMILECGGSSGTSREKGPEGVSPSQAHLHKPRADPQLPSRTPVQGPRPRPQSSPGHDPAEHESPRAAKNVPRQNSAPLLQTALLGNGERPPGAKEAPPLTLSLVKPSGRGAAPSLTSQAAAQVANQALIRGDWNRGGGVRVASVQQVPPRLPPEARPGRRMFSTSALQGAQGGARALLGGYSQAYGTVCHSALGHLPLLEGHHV

[7] = target: Interleukin-1 receptor-associated kinase 1 (Homo sapiens) (UniProt P51617); details: Compound concentration 1000.0 nM
[8] = target: Serine/threonine-protein kinase 26 (Homo sapiens) (UniProt Q9P289); details: Compound concentration 1000.0 nM
[9] = target: Membrane-associated tyrosine- and threonine-specific cdc2-inhibitory kinase (Homo sapiens) (UniProt Q99640); details: Compound concentration 1000.0 nM
Chain of Membrane-associated tyrosine- and threonine-specific cdc2-inhibitory kinase (Homo sapiens) (Q99640 whole entry): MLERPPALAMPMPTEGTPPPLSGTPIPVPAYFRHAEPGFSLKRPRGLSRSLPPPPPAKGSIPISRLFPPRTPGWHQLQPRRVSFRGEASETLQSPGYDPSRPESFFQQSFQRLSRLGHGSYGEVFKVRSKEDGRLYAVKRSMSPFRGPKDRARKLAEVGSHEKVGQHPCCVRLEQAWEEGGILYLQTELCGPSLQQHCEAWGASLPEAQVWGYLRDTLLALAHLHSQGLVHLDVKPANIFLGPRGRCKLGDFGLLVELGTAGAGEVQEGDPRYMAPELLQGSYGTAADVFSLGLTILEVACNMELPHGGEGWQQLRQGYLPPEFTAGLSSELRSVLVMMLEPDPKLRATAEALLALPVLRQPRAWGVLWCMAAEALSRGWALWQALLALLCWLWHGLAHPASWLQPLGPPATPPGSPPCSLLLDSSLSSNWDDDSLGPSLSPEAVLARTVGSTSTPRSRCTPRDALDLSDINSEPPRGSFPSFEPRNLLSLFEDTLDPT

[10] = target: Ribosomal protein S6 kinase beta-1 (Homo sapiens) (UniProt P23443); details: Compound concentration 1000.0 nM
Chain of Ribosomal protein S6 kinase beta-1 (Homo sapiens) (P23443 whole entry, looked up): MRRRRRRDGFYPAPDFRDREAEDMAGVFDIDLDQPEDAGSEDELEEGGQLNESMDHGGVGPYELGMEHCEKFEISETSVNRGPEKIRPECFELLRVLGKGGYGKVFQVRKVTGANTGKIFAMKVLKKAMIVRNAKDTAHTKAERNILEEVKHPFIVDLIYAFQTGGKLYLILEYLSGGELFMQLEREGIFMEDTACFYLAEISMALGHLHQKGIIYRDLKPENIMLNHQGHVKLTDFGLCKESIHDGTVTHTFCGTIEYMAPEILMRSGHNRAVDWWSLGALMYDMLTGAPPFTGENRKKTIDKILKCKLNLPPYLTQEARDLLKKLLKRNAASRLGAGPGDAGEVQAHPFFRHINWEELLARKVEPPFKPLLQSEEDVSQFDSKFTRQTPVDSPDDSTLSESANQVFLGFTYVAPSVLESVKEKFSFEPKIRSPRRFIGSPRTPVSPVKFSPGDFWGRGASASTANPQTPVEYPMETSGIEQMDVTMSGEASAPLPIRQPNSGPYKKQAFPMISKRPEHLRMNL

[11] = target: Serine/threonine-protein kinase SIK2 (Homo sapiens) (UniProt Q9H0K1); details: Compound concentration 1000.0 nM
Chain of Serine/threonine-protein kinase SIK2 (Homo sapiens) (Q9H0K1 whole entry, looked up): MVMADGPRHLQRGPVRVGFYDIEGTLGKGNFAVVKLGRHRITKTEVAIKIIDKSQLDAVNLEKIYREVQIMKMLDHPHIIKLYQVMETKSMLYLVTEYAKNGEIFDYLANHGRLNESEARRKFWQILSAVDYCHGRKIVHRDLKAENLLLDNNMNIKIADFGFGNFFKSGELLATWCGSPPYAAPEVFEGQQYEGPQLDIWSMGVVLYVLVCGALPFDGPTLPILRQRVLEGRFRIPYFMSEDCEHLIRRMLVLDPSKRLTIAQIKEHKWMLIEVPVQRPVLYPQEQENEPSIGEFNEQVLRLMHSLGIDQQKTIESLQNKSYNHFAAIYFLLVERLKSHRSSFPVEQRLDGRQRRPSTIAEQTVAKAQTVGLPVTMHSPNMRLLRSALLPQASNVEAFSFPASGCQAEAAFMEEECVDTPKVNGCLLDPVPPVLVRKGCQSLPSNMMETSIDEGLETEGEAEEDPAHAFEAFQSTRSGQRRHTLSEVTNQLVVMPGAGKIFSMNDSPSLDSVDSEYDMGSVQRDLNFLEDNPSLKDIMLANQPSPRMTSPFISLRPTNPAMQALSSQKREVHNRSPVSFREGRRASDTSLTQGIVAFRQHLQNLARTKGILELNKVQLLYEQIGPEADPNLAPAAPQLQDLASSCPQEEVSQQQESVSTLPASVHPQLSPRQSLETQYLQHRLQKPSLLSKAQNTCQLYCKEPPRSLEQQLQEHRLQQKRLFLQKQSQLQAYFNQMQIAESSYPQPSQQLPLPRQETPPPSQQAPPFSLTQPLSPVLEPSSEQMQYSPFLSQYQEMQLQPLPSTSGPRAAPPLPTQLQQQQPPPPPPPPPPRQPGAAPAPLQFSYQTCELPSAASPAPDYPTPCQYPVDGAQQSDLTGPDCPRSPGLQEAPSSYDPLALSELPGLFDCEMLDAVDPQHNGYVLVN

[12] = target: Tyrosine-protein kinase Srms (Homo sapiens) (UniProt Q9H3Y6); details: Compound concentration 1000.0 nM
Chain of Tyrosine-protein kinase Srms (Homo sapiens) (Q9H3Y6 whole entry): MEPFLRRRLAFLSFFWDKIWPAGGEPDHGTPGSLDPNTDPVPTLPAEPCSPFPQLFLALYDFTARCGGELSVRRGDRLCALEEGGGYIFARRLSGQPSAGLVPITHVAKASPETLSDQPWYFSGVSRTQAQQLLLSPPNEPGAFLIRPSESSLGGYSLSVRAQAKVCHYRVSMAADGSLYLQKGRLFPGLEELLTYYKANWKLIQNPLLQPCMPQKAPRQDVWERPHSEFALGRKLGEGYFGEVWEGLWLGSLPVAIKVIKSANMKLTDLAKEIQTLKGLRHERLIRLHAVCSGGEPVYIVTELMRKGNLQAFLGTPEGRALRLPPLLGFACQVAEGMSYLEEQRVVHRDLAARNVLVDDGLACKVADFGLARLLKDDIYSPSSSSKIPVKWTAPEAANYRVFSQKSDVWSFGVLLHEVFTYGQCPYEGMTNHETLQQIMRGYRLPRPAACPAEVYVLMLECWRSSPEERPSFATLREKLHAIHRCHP

[13] = target: Serine/threonine-protein kinase ULK1 (Homo sapiens) (UniProt O75385); details: Compound concentration 1000.0 nM
Chain of Serine/threonine-protein kinase ULK1 (Homo sapiens) (O75385 whole entry): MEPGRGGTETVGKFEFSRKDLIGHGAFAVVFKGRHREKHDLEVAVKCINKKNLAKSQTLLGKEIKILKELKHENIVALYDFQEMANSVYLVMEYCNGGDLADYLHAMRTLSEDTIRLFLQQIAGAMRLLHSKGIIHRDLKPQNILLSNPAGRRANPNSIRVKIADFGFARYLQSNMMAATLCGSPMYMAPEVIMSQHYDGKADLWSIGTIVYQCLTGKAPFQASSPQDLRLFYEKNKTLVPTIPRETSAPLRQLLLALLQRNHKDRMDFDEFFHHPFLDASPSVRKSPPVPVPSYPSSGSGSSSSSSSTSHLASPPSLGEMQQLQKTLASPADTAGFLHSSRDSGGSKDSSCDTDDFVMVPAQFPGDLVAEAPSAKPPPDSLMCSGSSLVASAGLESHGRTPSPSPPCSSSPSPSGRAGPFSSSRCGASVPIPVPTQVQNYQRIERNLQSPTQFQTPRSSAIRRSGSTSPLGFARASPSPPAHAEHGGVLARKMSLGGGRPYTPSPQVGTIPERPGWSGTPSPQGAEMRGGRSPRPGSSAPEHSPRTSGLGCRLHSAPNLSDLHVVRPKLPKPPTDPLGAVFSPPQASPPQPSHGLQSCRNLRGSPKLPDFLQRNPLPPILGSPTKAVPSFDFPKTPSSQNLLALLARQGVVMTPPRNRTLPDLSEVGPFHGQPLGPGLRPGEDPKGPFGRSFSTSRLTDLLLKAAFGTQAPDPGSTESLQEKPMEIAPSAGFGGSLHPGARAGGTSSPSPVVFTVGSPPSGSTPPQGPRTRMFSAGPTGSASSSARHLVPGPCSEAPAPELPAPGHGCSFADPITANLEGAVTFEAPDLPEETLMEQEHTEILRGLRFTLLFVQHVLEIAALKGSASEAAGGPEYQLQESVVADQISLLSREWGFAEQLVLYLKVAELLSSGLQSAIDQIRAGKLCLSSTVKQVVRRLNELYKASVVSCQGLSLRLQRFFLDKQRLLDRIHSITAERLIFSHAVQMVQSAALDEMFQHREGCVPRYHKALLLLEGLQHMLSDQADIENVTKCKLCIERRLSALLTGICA

[14] = target: Serine/threonine-protein kinase 32B (Homo sapiens) (UniProt Q9NY57); details: Compound concentration 1000.0 nM
[15] = target: D(3) dopamine receptor (Homo sapiens) (UniProt P35462); details: Compound concentration 10.0 uM

CN(C)C(=O)Cn1cc(-c2nc(C3(c4ccc(-c5cnc(N)nc5)cc4)CC3)no2)cn1 [BI 0153]
inactive: residual activity [1] 95% | residual activity [2] 100% | residual activity [3] 89% | residual activity [4] 80% | residual activity [5] 70% | residual activity [6] 96% | residual activity [7] 77% | residual activity [8] 89% | residual activity [9] 90% | residual activity [10] 91% | residual activity [11] 100% | residual activity [12] 73% | residual activity [13] 75% | residual activity [14] 100% | inhibition [15] -2.44%

CN(C)C(=O)Cn1cc(-c2nc([C@@](C)(c3ccc(-c4cnc(N)nc4)cc3)C3CC3)no2)cn1 [BI 665915]
inactive: residual activity [1] 84% | residual activity [2] 100% | residual activity [3] 99% | residual activity [4] 100% | residual activity [5] 87% | residual activity [6] 91% | residual activity [7] 85% | residual activity [8] 97% | residual activity [9] 88% | residual activity [10] 83% | residual activity [11] 93% | residual activity [12] 93% | residual activity [13] 77% | residual activity [14] 100% | inhibition [15] -5.97%
